# Test results published in US12128035B2, “Activating pyruvate kinase R” (Novo Nordisk Health Care AG, priority 2021, dated 2024).
# Assay: Phase 1 food effect cohort in healthy subjects
# Assay type: in vivo, human
# Settings: 400 mg with and without food
# Procedure: Four healthy SAD cohorts were evaluated at doses of 200, 400, 700, and 1000 mg, and four healthy MAD cohorts received 200 to 600 mg total daily doses for 14 days at QD or BID dosing (100 mg BID, 200 mg BID, 300 mg BID, and 400 mg QD). In the food effect (FE) cohort, 10 healthy subjects received 400 mg of Compound 1 QD with and without food. […] FIG. 22 illustrates plasma Compound 1 pharmacokinetics in healthy volunteers following a single dose. […] No significant changes in exposure were observed after 14 days of dosing. Compound 1 exposure under fed/fasted conditions was similar.
compound,measurement,value
"O=C([C@H](CO)c1ccccc1)N1CC2=C(C1)CN(S(=O)(=O)c1cnc3c(c1)OCCO3)C2 (single isomer, unassigned) [Compound 1]",exposure under fed/fasted conditions,similar
